Assay results published in patent US7238669B2, “Phage-display peptides as novel antimicrobial agents against Haemophilus influenzae” (priority 2002, dated 2007).

How the values were obtained:
Proteus [1] = experiment: Growth of other bacterial species in presence of hi3/17; format: cell-based, Proteus mirabilis; conditions: FIG. 4
Procedure: (§1) (Salmonella), Enterococcus faecialis (E. faec.), Staphylococcus aureus (S. aur.) and Pseudomonas aeruginosa (P. aeru.). One hundred and fifty μl of the test bacteria were incubated in the presence of either hi3/17, f88 unselected phage display library in sBHI broth (supplemented with 10 μg/mL heme and NAD+) or control sBHI at 37° C. The next day, the optical densities of the bacterial cultures were evaluated by direct measurement of the optical densities at OD630 nm. Dilutions of the bacteria were incubated on sBHI agar plates to determine the total number of colonies per well.

Enterococcus faecialis [2] = experiment: Binding to bacteria via ELISA
Proteus [3] = experiment: Binding to bacteria via ELISA; set-up: species or system Proteus mirabilis
Int-1 strain of NTHi = experiment: Inhibition of Int-1 growth by phage-displayed peptides (overnight in sBHI broth, OD630 and colony counts); format: cell-based, Haemophilus influenzae; conditions: for MIC concentration resulting in no bacterial growth: FIGS. 3A and 3B
Procedure: The next day, the optical densities of the bacterial cultures were evaluated by direct measurement of the optical densities at OD630 nm.
Int-1, a non-typeable clinical isolate, was isolated in 1991 from the blood of a child with clinical symptoms of meningitis. It is virulent in rat models and is able to survive in human serum. Kw20, a non-typeable strain, was isolated in 1954. R3001, a non-typeable clinical isolate, was isolated from a bronchial lavage of a cystic fibrosis patient. R2140, is a non-typeable clinical isolate. R538 is a Haemophilus influenzae type b ATCC strain No. 9795. E1a is a type b Haemophilus influenzae clinical isolate.

NTHi = experiment: Microscopic examination of cell membrane integrity; format: cell-based, Haemophilus influenzae; conditions: microscopic results
Staphylococcus aureus = experiment: Growth of other bacterial species in presence of hi3/17; format: cell-based; conditions: FIG. 4
Procedure: as §1

Enterococcus faecialis [4] = experiment: as above; format: cell-based; conditions: FIG. 4
Procedure: as §1

Sequence | antimicrobial activity against Proteus (Proteus [1]) | binding via ELISA (Enterococcus faecialis [2]) | binding via ELISA (Proteus [3]) | MIC (Int-1 strain of NTHi) | bactericidal activity against Int-1 (Int-1 strain of NTHi) | greater antimicrobial activity towards Int-1 compared with Group 2 phage displayed peptides (Int-1 strain of NTHi) | MIC concentration resulting in no bacterial growth (Int-1 strain of NTHi) | effect on cell membrane integrity of NTHi (NTHi) | inhibition of growth of Staphylococcus aureus (Staphylococcus aureus) | antimicrobial activity against Enterococcus faecialis (Enterococcus faecialis [4])
KQRTSIRATEGCLPS [hi3/17] | no activity | binding being detectable | binding being detectable | ~1e10 virions per μl | bactericidal | over 5 fold | 3.64×10^9 virions | altered the cell membrane integrity | completely inhibit the growth | no activity
VVFLSSRNSAVFTDF [fUSE5/2] |  |  |  |  | bactericidal |  | 2.4×10^10 virions | altered the cell membrane integrity |  | 
